The target in one test is USP46 (Homo sapiens, UniProt P62068). In words: Biacore SPR dose-dependent binding; IC50 from Ub-AMC enzyme inhibition with USP46/UAF1. In kind it is biochemical.
The next test has as its target USP12 (Homo sapiens, UniProt O75317). In words: Biacore SPR dose-dependent binding; IC50 from Ub-AMC enzyme inhibition with USP12/UAF1. In kind it is biochemical.

USP46, sequence (P62068 whole entry): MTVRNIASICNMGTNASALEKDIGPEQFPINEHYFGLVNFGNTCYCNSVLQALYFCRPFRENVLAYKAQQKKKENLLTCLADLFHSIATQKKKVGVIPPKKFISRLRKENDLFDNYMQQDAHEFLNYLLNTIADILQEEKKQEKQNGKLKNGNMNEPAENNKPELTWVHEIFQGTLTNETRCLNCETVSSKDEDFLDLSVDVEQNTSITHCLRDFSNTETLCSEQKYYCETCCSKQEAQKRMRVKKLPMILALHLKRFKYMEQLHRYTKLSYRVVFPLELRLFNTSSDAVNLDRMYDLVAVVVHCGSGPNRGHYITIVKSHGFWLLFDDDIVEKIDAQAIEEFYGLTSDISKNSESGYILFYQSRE
USP46, sequence (Q8TAF3 whole entry partner): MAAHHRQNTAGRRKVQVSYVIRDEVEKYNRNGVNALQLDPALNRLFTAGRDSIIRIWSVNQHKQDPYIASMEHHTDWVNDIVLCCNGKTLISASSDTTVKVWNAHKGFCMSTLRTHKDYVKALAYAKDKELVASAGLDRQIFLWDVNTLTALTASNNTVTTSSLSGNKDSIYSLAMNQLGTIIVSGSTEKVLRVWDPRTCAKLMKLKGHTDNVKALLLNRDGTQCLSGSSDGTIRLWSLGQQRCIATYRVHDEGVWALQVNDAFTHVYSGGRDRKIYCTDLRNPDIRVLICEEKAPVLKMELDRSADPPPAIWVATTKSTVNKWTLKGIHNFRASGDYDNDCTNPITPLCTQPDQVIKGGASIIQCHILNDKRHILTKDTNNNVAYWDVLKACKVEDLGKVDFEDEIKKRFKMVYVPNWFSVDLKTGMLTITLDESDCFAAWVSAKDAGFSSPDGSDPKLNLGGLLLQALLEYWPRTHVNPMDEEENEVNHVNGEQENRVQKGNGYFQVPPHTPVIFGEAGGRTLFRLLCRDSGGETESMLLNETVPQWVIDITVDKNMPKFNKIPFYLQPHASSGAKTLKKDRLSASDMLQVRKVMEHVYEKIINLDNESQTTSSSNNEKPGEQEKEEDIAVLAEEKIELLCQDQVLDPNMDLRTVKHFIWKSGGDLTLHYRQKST
USP12, sequence (O75317 whole entry): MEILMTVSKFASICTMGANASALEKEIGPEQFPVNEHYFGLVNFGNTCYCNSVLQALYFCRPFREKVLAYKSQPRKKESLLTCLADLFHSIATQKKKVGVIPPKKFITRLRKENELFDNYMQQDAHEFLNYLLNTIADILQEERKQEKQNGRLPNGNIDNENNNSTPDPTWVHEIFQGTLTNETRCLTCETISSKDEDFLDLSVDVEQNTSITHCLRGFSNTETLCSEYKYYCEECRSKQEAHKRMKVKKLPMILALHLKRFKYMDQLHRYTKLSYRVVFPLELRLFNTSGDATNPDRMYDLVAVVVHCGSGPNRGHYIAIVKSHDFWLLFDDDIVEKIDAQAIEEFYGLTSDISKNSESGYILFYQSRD
USP12, sequence (Q8TAF3 whole entry partner): as the sequence (Q8TAF3 whole entry partner) above

Take `C[C@]12CC[C@H](O)CC1=CC[C@@H]1[C@@H]2CC[C@]2(C)C(n3cnc4ccccc43)=CC[C@@H]12` [galeterone]: the IC50 at USP46 was in the range of 3.4 to 4.2 µM; at USP12 it was 2.1 to 3.4 µM.

Values taken from publication PMC5982776, “The novel anti-androgen candidate galeterone targets deubiquitinating enzymes, USP12 and USP46, to control prostate cancer growth and survival” (Oncotarget, 2018).
